From publication PMC12696353, “Structural insights into endogenous agonist selectivity of aminergic receptors from the octopamine β2 receptor” (PNAS Nexus, 2025)
Substitutions are numbered along the chain they refer to. Where two headings read alike, the source gives them in different places.

How the values were obtained:
[1] = target: I. scapularis octβ2R (is-octβ2R) (Ixodes scapularis, UniProt A0ACM8E5E8); test: cell-based; format: cell-based; conditions: for Emax: AP-TGFα release
Description: (§1) The TGFα shedding assay was performed as previously described ([28]). […] The cells were transfected using lipofectamine 2000 with plasmids encoding alkaline phosphatase–tagged TGFα (AP-TGFα) (2.5 ng/mL), is-octβ2Rs (1 ng/mL), and Gαq/s (0.5 ng/mL). After 24 h, the cells were washed with phosphate-buffered saline and resuspended in Hank's balanced salt solution (HBSS) (supplemented with 5 mM HEPES [pH 7.4]). The cells (90 μL/well) were plated in a 96-well plate and incubated with 10 μL of HBSS solution containing various concentrations of compounds for 1 h at 37 °C. Following centrifugation (200 × g, 2 min), 80 μL of the supernatant was transferred to a separate 96-well plate. Subsequently, 80 µL of 2× para-nitrophenyl phosphate (pNPP) buffer (containing 10 mM pNPP in 40 mM Tris–HCl [pH 9.5], 40 mM NaCl, and 10 mM MgCl2) was added to both the supernatant and cell-containing plates. The optical density at 405 nm of both plates was measured before and after a 1 h incubation at room temperature using a microplate reader (SpectraMax iD3, Molecular Devices, San Jose, CA, United States). AP-TGFα release was calculated using the following formulas:
(§2) ΔOD405=OD450(1h)−OD405(0h)AP−TGFαinsupernatant(%)=(ΔOD405Sup/[ΔOD450Sup+ΔOD405Cell])×125AP−TGFαrelease(%)=AP−TGFαinsupernatantunderastimulatedcondition(%)−AP−TGFαinsupernatantunderavehicle−treatedcondition
(§3) where OD405 (0 h) and […] represent the OD405 before and after a 1 h incubation, respectively, and OD405Sup and OD405Cell represent the OD405 of supernatant and cell plates, respectively. For all pharmacological analyses, nonlinear regression curve fitting was performed with a 3-parameter sigmoid model (Hill coefficient = 1) using Prism 8 (GraphPad Software, La Jolla, CA, United States).

[2] = target: T1, is-octβ2R I61^1.42F mutant (Ixodes scapularis, UniProt A0ACM8E5E8, I40F); test: TGFα shedding assay, amitraz-resistant mutant I61^1.42F; format: cell-based; conditions: Table S4
T1 sequence (A0ACM8E5E8 1-384 I40F): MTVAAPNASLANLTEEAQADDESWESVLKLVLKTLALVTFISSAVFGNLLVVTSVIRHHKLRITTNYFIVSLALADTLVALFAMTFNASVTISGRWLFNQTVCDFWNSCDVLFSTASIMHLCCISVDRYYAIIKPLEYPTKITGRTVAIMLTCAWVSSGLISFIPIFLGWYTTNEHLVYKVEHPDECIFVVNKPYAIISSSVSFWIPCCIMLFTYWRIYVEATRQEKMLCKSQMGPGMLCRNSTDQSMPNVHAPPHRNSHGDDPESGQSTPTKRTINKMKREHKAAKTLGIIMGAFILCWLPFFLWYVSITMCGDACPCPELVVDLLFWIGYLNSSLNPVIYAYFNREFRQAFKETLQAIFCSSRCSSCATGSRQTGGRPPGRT
Description: as §1, §2, §3

[3] = target: T2, is-octβ2R I62^1.43T mutant (Ixodes scapularis, UniProt A0ACM8E5E8, I41T); test: TGFα shedding assay, amitraz-resistant mutant I62^1.43T; format: cell-based; conditions: Table S4
T2 sequence (A0ACM8E5E8 1-384 I41T): T1 sequence (A0ACM8E5E8 1-384 I40F) with F40I, I41T
Description: as §1, §2, §3

[4] = test system: is-octβ2R D110^3.32A mutant; test: TGFα shedding assay, mutant D110^3.32A; format: cell-based, Ixodes scapularis; conditions: Table S6
Description: as §1
(§4) ΔOD405=OD450(1h)−OD405(0h)AP−TGFαinsupernatant(%)=(ΔOD405Sup/[ΔOD450Sup+ΔOD405Cell])×125AP−TGFαrelease(%)=AP−TGFαinsupernatantunderastimulatedcondition(%)−AP−TGFαinsupernatantunderavehicle−treatedcondition […]

[5] = test system: is-octβ2R D110^3.32N mutant; test: TGFα shedding assay, mutant D110^3.32N; format: cell-based, Ixodes scapularis; conditions: Table S6
Description: as §1, §4

[6] = target: is-octβ2R V111^3.33A mutant (Ixodes scapularis, UniProt A0ACM8E5E8, V111A); test: TGFα shedding assay, mutant V111^3.33A; format: cell-based
Description: as §1, §4

[7] = target: is-octβ2R S114^3.36A mutant (Ixodes scapularis, UniProt A0ACM8E5E8, S114A); test: TGFα shedding assay, mutant S114^3.36A; format: cell-based; conditions: Table S6
Description: as §1, §4

[8] = target: is-octβ2R T115^3.37A mutant (Ixodes scapularis, UniProt A0ACM8E5E8, T115A); test: TGFα shedding assay, mutant T115^3.37A; format: cell-based
Description: as §1, §4

[9] = test system: is-octβ2R I118^3.40A mutant; test: TGFα shedding assay, mutant I118^3.40A; format: cell-based, Ixodes scapularis; conditions: Table S6
Description: as §1, §4

[10] = test system: is-octβ2R F189^45.52A mutant; test: TGFα shedding assay, mutant F189^45.52A; format: cell-based, Ixodes scapularis; conditions: Table S6
Description: as §1, §4

[11] = test system: is-octβ2R Y195^5.38A mutant; test: TGFα shedding assay, mutant Y195^5.38A; format: cell-based, Ixodes scapularis; conditions: Table S6
Description: as §1, §4

[12] = target: is-octβ2R S203^5.46A mutant (Ixodes scapularis, UniProt A0ACM8E5E8, S203A); test: TGFα shedding assay, mutant S203^5.46A; format: cell-based
Description: as §1, §4

[13] = test system: is-octβ2R F303^6.51A mutant; test: TGFα shedding assay, mutant F303^6.51A; format: cell-based, Ixodes scapularis; conditions: Table S6
Description: as §1, §4

[14] = test system: is-octβ2R Y332^7.43A mutant; test: TGFα shedding assay, mutant Y332^7.43A; format: cell-based, Ixodes scapularis; conditions: Table S6
Description: as §1, §4

[15] = target: is-octβ2R F328^7.39A mutant (Ixodes scapularis, UniProt A0ACM8E5E8, F328A); test: TGFα shedding assay, mutant F328^7.39A; format: cell-based
Description: as §1, §4

[16] = HEK293, 1 h, Table S2, wild type, HEK293 cells, mean ± SEM, n = 3
[17] = logEC50, Table S2, wild type, HEK293 cells, mean ± SEM, n = 3
[18] = Table S6, read-out: logEC50 (converted)

SMILES	Emax ([1]; 1 h, Table S4, WT)	Emax ([1]; 1 h, Table S6, WT)	Emax [1, 16]	EC50 ([1]; LogEC50, Table S4, WT)	EC50 [1, 17]	EC50 [2]	EC50 [3]	logEC50 [4]	logEC50 [5]	logEC50 [9]	logEC50 [10]	logEC50 [11]	logEC50 [13]	logEC50 [14]	other results
CN/C=N/c1ccc(C)cc1C [DPMF, N-2,4-dimethylphenyl-N′-methylformamidine]	21 ± 1%	25 ± 0.7%	24 ± 0.6%	7.94 nM	3.98 nM	7.94 nM	2 nM	no activity	no activity	no activity	no activity	no activity	no activity	signal observed only at a concentration of 10^−5 M	EC50 [6, 18]: 251 nM; EC50 ([6]; read-out: EC50): 320 nM; EC50 [7]: 251 nM; EC50 [8, 18]: 5.01 nM; EC50 ([8]; read-out: EC50): 5 nM; EC50 [12, 18]: 1.26 nM; EC50 ([12]; read-out: EC50): 1.3 nM
NCC(O)c1ccc(O)cc1 (stereo not drawn) [Octopamine, octopamine]	23 ± 0.8%	27 ± 1.5%	27 ± 0.7%	10 nM	20 nM	7.94 nM	5.01 nM	no activity	no activity	no activity	no activity	no activity	no activity	signal observed only at 10-5 M	EC50 ([1]; logEC50, Table S6, WT): 25.1 nM; potency (EC50) relative to the other TDAs ([1]; wild type, order octopamine > tyramine > noradrenaline > dopamine): highest potency; EC50 [15, 18]: 1000 nM; EC50 ([15]; stated as a range in text, read-out: EC50): ~1000 nM
